# Test results taken from ChEMBL document CHEMBL1142074, “In vitro activities of cloxyquin (5-chloroquinolin-8-ol) against Mycobacterium tuberculosis” (2007).
# Assays:
# Format in all cases: functional
# [1] = tested on: Mycobacterium tuberculosis; assay: Antimycobacterial activity against Mycobacterium tuberculosis H37Ra ATCC 25177 by microplate alamar blue assay
# [2] = tested on: Mycobacterium tuberculosis; assay: Antimycobacterial activity against para-aminosalicylic acid-resistant Mycobacterium tuberculosis H37Rv ATCC 35821 by microplate alamar blue assay
# [3] = tested on: Mycobacterium tuberculosis; assay: Antimycobacterial activity against Mycobacterium tuberculosis H37Rv ATCC 27294 by microplate alamar blue assay
# [4] = tested on: Mycobacterium tuberculosis; assay: Antimycobacterial activity against Mycobacterium tuberculosis isolates from pulmonary tuberculosis patient by microplate alamar blue assay
Compound,MIC [1] [µg/mL],MIC [2] [µg/mL],MIC [3] [µg/mL],MIC50 [4] [µg/mL],MIC90 [4] [µg/mL]
Oc1cccc2cccnc12 [OXYQUINOLINE],0.125,–,–,–,–
Oc1c(Br)cc(Br)c2cccnc12 [BROXYQUINOLINE],6.25,–,–,–,–
Cc1ccc2c(Cl)cc(Cl)c(O)c2n1 [CHLORQUINALDOL],0.38,–,–,–,–
Oc1c(I)cc(Cl)c2cccnc12 [CLIOQUINOL],6.25,–,–,–,–
Oc1ccc(Cl)c2cccnc12 [CLOXYQUIN],0.125,0.125,0.125,0.125,0.25
